Columns and labels:
[1] = Assay C: Permeability in CACO-2 cells; type: in vitro ADME; conditions: human, Caco-2, pH 7.2; pair comparison without/with 4-fluoropiperidyl; read-out: Efflux ratio (BA/AB)
Experimental: (§1) Caco-2 cells (1-2×10^5 cells/1 cm^2 area) are seeded on filter inserts (Costar transwell polycarbonate or PET filters, 0.4 μm pore size) and cultured (DMEM) for 10 to 25 days. Compounds are dissolved in appropriate solvent (like DMSO, 1-20 mM stock solutions). […] The transport solution (TL) is applied to the apical or basolateral donor side for measuring A-B or B-A permeability (3 filter replicates), respectively. Samples are collected at the start and end of experiment from the donor and at various time intervals for up to 2 hours also from the receiver side for concentration measurement by HPLC-MS/MS or scintillation counting. Sampled receiver volumes are replaced with fresh receiver solution.
(§2) Efflux ratio (ER)=permeability B-A/permeability A-B

[2] = system: CACO-2 cells; assay: Assay C: Permeability in CACO-2 cells; type: in vitro ADME; conditions: pair comparison without/with 4-fluoropiperidyl
Experimental: as §1, §2

Row | efflux ratio [1] | CACO2 Perm. [2] | SMILES
1 | 5.7 | 17.0 10^−6 cm/sec | Cn1cnnc1C1CCN(c2c(C#N)cc(F)cc2-c2cnc3nn(C(C)(C)C)c(C(F)(F)F)c3c2)CC1
2 | 0.8 | 51.0 10^−6 cm/sec | Cn1cnnc1C1(F)CCN(c2c(C#N)cc(F)cc2-c2cnc3nn(C(C)(C)C)c(C(F)(F)F)c3c2)CC1
3 | 36.4 | 1.0 10^−6 cm/sec | Cn1cnnc1C1CCN(c2c(C#N)cc(C(F)(F)F)nc2-c2cnc3nn(C(C)(C)C)c(Cl)c3c2)CC1
4 | – | 28.0 10^−6 cm/sec | Cn1cnnc1C1(F)CCN(c2c(C#N)ccnc2-c2ccc(F)nc2)CC1 [Example 1 in EP 22188580.9]
5 | 1 | 47.0 10^−6 cm/sec | Cn1cnnc1C1(F)CCN(c2c(C#N)cc(C(F)(F)F)nc2-c2cnc3nn(C(C)(C)C)c(Cl)c3c2)CC1 [Example 3 in EP 23189886.7]
6 | – | 40.5 10^−6 cm/sec | Cn1cnnc1C1(F)CCN(c2c(C#N)cc(C(F)(F)F)cc2-c2ccc(F)nc2)CC1 [Example 4 in EP 23161417.3]
7 | 0.6 | 99.5 10^−6 cm/sec | Cn1cnnc1C1(F)CCN(c2c(C#N)cc(C(F)(F)F)nc2-c2cnc3nn(C(C)(C)C)c(C(F)(F)F)c3c2)CC1 [Example 4 in EP 23189886.7]
8 | – | 44.0 10^−6 cm/sec | Cn1cnnc1C1(F)CCN(c2c(C#N)cc(F)cc2-c2ccc(F)nc2)CC1 [Example 6 in EP 23161417.3]
9 | – | 11.0 10^−6 cm/sec | Cn1cnnc1C1(F)CCN(c2c(-c3ccc(F)nc3)ccnc2C#N)CC1 [Example 10 in EP 22188580.9]
10 | 28.1 | 0.3 10^−6 cm/sec | Cn1cnnc1C1CCN(c2c(C#N)cccc2-c2ccnnc2)CC1 [Example 11 in WO 2024/020517]
11 | 5.7 | 3.7 10^−6 cm/sec | Cn1cnnc1C1CCN(c2c(C#N)cc(C(F)(F)F)nc2-c2cnc3nn(C(C)(C)C)c(C(F)(F)F)c3c2)CC1 [Example 13 in EP 23189886.7]
12 | – | 2.5 10^−6 cm/sec | Cn1cnnc1C1CCN(c2c(C#N)cc(Cl)cc2-c2cnc3nn(C(C)(C)C)cc3c2)CC1 [Example 17 in EP 23161417.3]
13 | – | 18.0 10^−6 cm/sec | Cn1cnnc1C1(F)CCN(c2c(C#N)cc(Cl)cc2-c2cnc3nn(C(C)(C)C)cc3c2)CC1 [Example 19 in EP 23161417.3]
14 | – | 1.7 10^−6 cm/sec | Cn1cnnc1C1(F)CCN(c2c(-c3cnc4nn(C(C)(C)C)cc4c3)ccc(C(F)(F)F)c2C#N)CC1 [Example 30 in EP 23161417.3]
15 | – | 0.2 10^−6 cm/sec | Cn1cnnc1C1CCN(c2c(-c3cnc4nn(C(C)(C)C)cc4c3)ccc(C(F)(F)F)c2C#N)CC1 [Example 32 in EP 23161417.3]
16 | – | 0.5 10^−6 cm/sec | Cn1cnnc1C1CCN(c2c(C#N)cccc2-c2cnc3nn(C(C)(C)C)cc3c2)CC1 [Example 50 in EP 22216126.7]
17 | – | 15.0 10^−6 cm/sec | Cn1cnnc1C1(F)CCN(c2c(C#N)cccc2-c2ccnnc2)CC1 [Example 52 in EP 22216126.7]
18 | – | 50.0 10^−6 cm/sec | Cn1cnnc1C1(F)CCN(c2c(C#N)cccc2-c2ccc(F)nc2)CC1 [Example 56 in EP 23161417.3]
19 | – | 4.9 10^−6 cm/sec | Cn1cnnc1C1(F)CCN(c2c(C#N)cccc2-c2cnc3nn(C(C)(C)C)cc3c2)CC1 [Example 62 in EP 22216126.7]
20 | – | 9.0 10^−6 cm/sec | Cn1cnnc1C1CCN(c2c(C#N)cc(C(F)(F)F)cc2-c2ccc(F)nc2)CC1 [Example 70 in WO 2024/020517]
21 | – | 24.0 10^−6 cm/sec | Cn1cnnc1C1CCN(c2c(C#N)cc(F)cc2-c2ccc(F)nc2)CC1 [Example 130 in WO 2024/020517]
22 | – | 1.8 10^−6 cm/sec | Cn1cnnc1C1CCN(c2c(-c3ccc(F)nc3)ccnc2C#N)CC1 [Example 132 in WO 2024/020517]
23 | – | 4.8 10^−6 cm/sec | Cn1cnnc1C1CCN(c2c(C#N)ccnc2-c2ccc(F)nc2)CC1 [Example 133 in WO 2024/020517]
